Experimental data: ChEMBL document CHEMBL5584232, “Hijacking monopolar spindle 1 (MPS1) for various cancer types by small molecular inhibitors: Deep insights from a decade of research and patents” (Eur J Med Chem, 2024)

Tests used:
[1] = molecular target: T1, Dual specificity protein kinase TTK (Homo sapiens, UniProt P33981); test: Inhibition of MPS1 (unknown origin)
T1 sequence (P33981 whole entry): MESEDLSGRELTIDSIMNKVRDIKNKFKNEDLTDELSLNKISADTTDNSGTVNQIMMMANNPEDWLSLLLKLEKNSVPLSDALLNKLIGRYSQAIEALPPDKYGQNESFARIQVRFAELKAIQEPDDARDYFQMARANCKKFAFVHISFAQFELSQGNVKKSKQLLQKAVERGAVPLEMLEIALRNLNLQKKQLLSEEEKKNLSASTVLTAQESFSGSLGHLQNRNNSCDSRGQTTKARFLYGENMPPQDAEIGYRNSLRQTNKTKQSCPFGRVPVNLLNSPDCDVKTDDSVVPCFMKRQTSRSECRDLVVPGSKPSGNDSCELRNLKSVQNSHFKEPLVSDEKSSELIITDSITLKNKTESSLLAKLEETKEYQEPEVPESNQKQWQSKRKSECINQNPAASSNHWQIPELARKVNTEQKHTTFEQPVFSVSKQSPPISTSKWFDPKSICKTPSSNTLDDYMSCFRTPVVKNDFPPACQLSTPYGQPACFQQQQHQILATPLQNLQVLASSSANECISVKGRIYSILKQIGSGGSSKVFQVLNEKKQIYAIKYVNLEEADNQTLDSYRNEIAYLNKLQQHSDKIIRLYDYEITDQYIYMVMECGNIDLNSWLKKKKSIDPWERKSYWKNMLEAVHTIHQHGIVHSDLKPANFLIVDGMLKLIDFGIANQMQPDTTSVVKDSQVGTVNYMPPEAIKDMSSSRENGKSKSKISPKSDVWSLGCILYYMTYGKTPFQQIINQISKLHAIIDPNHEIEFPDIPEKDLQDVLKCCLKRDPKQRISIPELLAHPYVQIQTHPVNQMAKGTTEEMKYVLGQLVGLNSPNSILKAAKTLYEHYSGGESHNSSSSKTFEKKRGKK

[2] = tested on: COLO 205; test: Antiproliferative activity against human COLO 205 cells assessed as reduction in cell viability incubated for 48 hrs by MTT assay; format: functional, cell-based; details: COLO 205, 48 h
[3] = AUC in mouse; format: ADME, organism-based; details: in vivo
[4] = Half life in mouse; format: ADME, organism-based; details: in vivo
[5] = tested on: MOLT-4; test: Antiproliferative activity against human MOLT-4 cells assessed as reduction in cell growth incubated for 72 hrs by MTT assay; format: functional, cell-based; details: MOLT-4, 72 h
[6] = Metabolic stability in mouse liver microsomes assessed as drug metabolism measured after 30 mins; format: ADME, Microsome; details: read-out: Drug metabolism
[7] = molecular target: T2, Aurora kinase A (Homo sapiens, UniProt O14965); test: Inhibition of AURORA-A (unknown origin)
T2 sequence (O14965 whole entry): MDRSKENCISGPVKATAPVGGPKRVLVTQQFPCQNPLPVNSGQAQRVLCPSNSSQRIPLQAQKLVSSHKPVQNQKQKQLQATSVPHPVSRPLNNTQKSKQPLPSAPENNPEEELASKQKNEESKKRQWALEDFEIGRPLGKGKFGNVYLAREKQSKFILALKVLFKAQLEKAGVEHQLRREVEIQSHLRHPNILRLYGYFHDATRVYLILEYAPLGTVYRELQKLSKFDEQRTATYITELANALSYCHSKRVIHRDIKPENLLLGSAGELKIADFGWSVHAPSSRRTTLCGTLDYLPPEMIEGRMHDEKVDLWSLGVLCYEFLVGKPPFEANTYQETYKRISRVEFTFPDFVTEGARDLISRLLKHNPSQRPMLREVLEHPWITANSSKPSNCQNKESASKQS

[8] = molecular target: Cyclin-dependent kinase 2 (Homo sapiens, UniProt P24941); test: Inhibition of CDK2 (unknown origin)
[9] = tested on: OVCAR-4; test: Anticancer activity against human OVCAR-4 cells assessed as cell growth inhibition measured after 72 hrs by DAPI staining based analysis; format: functional
[10] = tested on: OVCAR-5; test: Anticancer activity against human OVCAR-5 cells assessed as cell growth inhibition measured after 72 hrs by DAPI staining based analysis; format: functional
[11] = tested on: OVCAR-8; test: Anticancer activity against human OVCAR-8 cells assessed as cell growth inhibition measured after 72 hrs by DAPI staining based analysis; format: functional
[12] = tested on: IGROV-1; test: Anticancer activity against human IGROV-1 cells assessed as cell growth inhibition measured after 72 hrs by DAPI staining based analysis; format: functional
[13] = tested on: NCI/ADR-RES; test: Anticancer activity against human NCI-ADR-RES cells assessed as cell growth inhibition measured after 72 hrs by DAPI staining based analysis; format: functional
[14] = tested on: OVCAR-4; test: Growth inhibition of human OVCAR-4 cells measured after 72 hrs by SRB method; format: functional
[15] = tested on: SK-OV-3; test: Anticancer activity against human SK-OV-3 cells assessed as cell growth inhibition measured after 72 hrs by DAPI staining based analysis; format: functional
[16] = tested on: IGROV-1; test: Growth inhibition of human IGROV-1 cells measured after 72 hrs by SRB method; format: functional
[17] = tested on: OVCAR-3; test: Anticancer activity against human OVCAR-3 cells assessed as cell growth inhibition measured after 72 hrs by DAPI staining based analysis; format: functional
[18] = AUC in ICR mouse at 3 mg/kg, po and measured after 24 hrs by LC-MS/MS analysis; format: ADME, organism-based; details: in vivo
[19] = Oral bioavailability in ICR mouse at 5 mg/kg by LC-MS/MS analysis; format: ADME, organism-based; details: in vivo
[20] = AUC in Sprague-Dawley rat at 3 mg/kg, po by LC-MS/MS analysis; format: ADME, organism-based; details: in vivo
[21] = Cmax in ICR mouse at 3 mg/kg, po; format: ADME, organism-based; details: in vivo
[22] = tested on: CAL-51; test: Antiproliferative activity against human CAL-51 cells assessed as reduction in cell viability incubated for 72 hrs by MTT assay; format: functional, cell-based; details: CAL-51, 72 h
[23] = Cmax in Sprague-Dawley rat at 3 mg/kg, po by LC-MS/MS analysis; format: ADME, organism-based; details: in vivo
[24] = Clearance in Beagle dog at 0.5 mg/kg, iv measured for 24 hrs by LC-MS/MS analysis; format: ADME, organism-based, Canis lupus familiaris; details: in vivo
[25] = Dose normalized AUC in Wistar rat at 1 mg/kg, po measured for 24 hrs by LC-MS/MS analysis; format: ADME, organism-based; details: in vivo
[26] = Clearance in Wistar rat at 1 mg/kg, iv measured after 24 hrs by LC-MS/MS analysis; format: ADME, organism-based; details: in vivo
[27] = Dose normalized AUC in Beagle dog at 1 mg/kg, po measured for 24 hrs by LC-MS/MS analysis; format: ADME, organism-based, Canis lupus familiaris; details: in vivo
[28] = Intrinsic clearance in human liver microsomes; format: ADME, Microsome

For `COc1cc(C(=O)N(C)C)ccc1Nc1nc(OC2CCCC2)c2cc[nH]c2n1`, the IC50 [1] was 0.001 µM.

Molecule `CN1CCC(c2ccc(Nc3ncc4c(n3)-n3ccc(C(N)=O)c3CC4)cc2)CC1` has an IC50 [1] of 0.0087 µM.

For `CCC(=O)N[C@H]1CC[C@@H](n2c(=O)cc(C)c3cnc(Nc4ccc(N5CCN(C(=O)CCC#Cc6ccc7c(c6)CN(C6CCC(=O)NC6=O)C7=O)CC5)cc4OC)nc32)CC1` (some centres not stated), the IC50 [2] was 0.1 µM, the AUC [3] was 2.23 µM·h and the half-life [4] was 4.3 h.

`COc1cc(N2CCN(C)CC2)ccc1Nc1ncc2c(n1)-n1ccc(C(=O)Nc3c(C)cccc3F)c1CC2` showed an IC50 [5] of 0.011 µM.

With `CCC(=O)N[C@H]1CC[C@@H](n2c(=O)cc(C)c3cnc(Nc4ccc(N5CCN(C(=O)CCCCC#Cc6ccc7c(c6)CN(C6CCC(=O)NC6=O)C7=O)CC5)cc4OC)nc32)CC1` (some centres not stated) the IC50 [2] was 0.2 µM, the AUC [3] was 2.33 µM·h and the half-life [4] was 3.2 h.

Molecule `COC1CCN(C(=O)c2ccc(Nc3cc4[nH]c(C(=O)N(C)C)cc4cn3)c(Cl)c2)CC1` has a metabolised at 0.5 h [6] of 23% and an IC50 [7] of over 100 µM.

For `CN(C)C(=O)c1cc2cnc(Nc3ccc(-c4cncn4C)cc3Cl)cc2n1C(=O)OC(C)(C)C`, the metabolised at 0.5 h [6] was 28%, the IC50 [7] was over 40 µM and the IC50 [8] was over 100 µM.

Work on `O=c1c2cc(Cl)ccc2sc2c(NCCCNCCO)nc3ccccc3c12` yielded a TGI [9] of 3.23 µM, a TGI [10] of 3.5 µM and a TGI [11] of 3.32 µM. For the same molecule, the TGI [12] was 3.6 µM, the TGI [13] was 3.63 µM and the GI50 [14] was 1.6 µM. The TGI [15] was 3.38 µM, the GI50 [16] was 1.6 µM and the TGI [17] was 3.51 µM.

With `CN(C)C(=O)c1cc2cnc(Nc3ccc(S(=O)(=O)N(C)C)cc3Cl)cc2[nH]1` the metabolised at 0.5 h [6] was 25% and the IC50 [7] was over 40 µM.

`CN(C)C(=O)c1ccc(Nc2cc3c(cn2)cc(C(=O)N(C)C)n3C(=O)OC(C)(C)C)c(Cl)c1` showed a metabolised at 0.5 h [6] of 48% and an IC50 [7] of 23 µM.

`CN(C)C(=O)c1cc2cnc(Nc3ccc(-c4cnn(C)c4)cc3Cl)cc2[nH]1` gave a metabolised at 0.5 h [6] of 20% and an IC50 [7] of over 100 µM.

`C[C@H](Oc1cc(C(=O)N(C)C)ccc1Nc1nc(O[C@H]2CC[C@@](C)(O)CC2)c2c(Cl)c[nH]c2n1)C(F)(F)F` gave an AUC at 24 h [18] of 22.5 µM·h, a bioavailability [19] of 60% and an IC50 [1] of 0.0007 µM. The AUC [20] was 26.3 µM·h, the Cmax [21] was 5.2 µM and the IC50 [22] was 0.01 µM. For the same molecule, the Cmax [23] was 4.35 µM.

With `COc1cc(N2CCN(C)CC2)ccc1Nc1ncc2c(n1)-n1ccc(C(=O)Nc3c(C)cccc3C)c1CC2` the IC50 [5] was 0.011 µM.

`COc1ccc(Oc2cc(NCCC(F)(F)F)c3ncc(-c4ccc(C(=O)NC5CC5)c(C)c4)n3n2)c(F)c1F` [BAY-1217389] showed a clearance [24] of 7.33 mL/min/kg, an AUC/dose [25] of 2.4 kg·h/L and a clearance [26] of 8.67 mL/min/kg. The AUC/dose [27] was 2.5 kg·h/L.

`CCOc1cc(-c2nncn2C)ccc1Nc1ncc2cc(C)nc(NCC(C)(C)C)c2n1` [BOS-172722] showed a CLH [28] of 8 µL/min/µg.
